# Patent US7071206B2, “Agents for treating neurodegenerative disorders” (Medivation, Inc., priority 1995, dated 2006)
# “And” between values parts separate entries of the source, which are not always exact repeats. Identical values can stand only once.
# Tested on: patients suffering from Alzheimer's disease
# Assay: Clinical trial of dimebon tablets, inventors' scale (E. E. Bukatina et al.; 0 = absence of a symptom, 4 = greatest manifestation)
# Type: in vivo, human
# Details: for Degree of irritability, M +/− m: mean of 7 patients having this symptom; for Values of cognitive functions, M +/− m: mean of 7 patients with unprofound dementia; for Marked depressive manifestation, M +/− m: mean of 8 patients with evident depression prior to treatment; for Intensity of headache, M +/− m: mean of 10 patients having this symptom; for number of patients with abatement or complete cessation of headaches / share of patients with abatement or complete cessation of headaches: of 10 patients
# Protocol: The test was carried out under the direct supervision by two of the inventors, namely E. E. Bukatina and V. Grigorieva, in 14 patients who agreed to take part in the tests, 13 of whom lived in a boarding house for senile persons and one patient lived with their family.
# Alzheimer's disease was diagnosed on the basis of criteria ICD-10 NINCDS ADRDA.
# Dimebon in the form of tablets (comprising 10 mg of dimebon, 30 mg of lactose, 5 mg of magnesium stearate was prescribed for oral administration in a dose of 0.02 g three to times a day. The patients living in the boarding house received dimebon for 58 days. A patient (observation 14) who was under outpatient observation continued taking the agent for a month after the completion of the tests.
# Before the treatment with dimebon, and at 4 and 8 weeks after treatment the patients were examined according to Hazegawa's scale and the inventors' scale (“Social and Clinical Psychiatry”, 1992, No.4, pp.29–37) which includes the following indexes: (1) orientation in locality, time, immediate surroundings and one's own personality; (2) orientation in space; (3) memory for the past; (4) memory for the present; (5) “life in the past”; (6) (a) articulation, (b) difficulty in finding words, and distortion of words; (c) naming of objects; (d) following instructions; (7) concentration (of attention); (8) an affective sphere; (a) high spirits, (b) low spirits; (9) delirium; (10) hearing hallucinations; (11) visual hallucinations; (12) senile or senile-like confusion (when motion anxiety is accompanied by the revival of the past experience); (13) irritability; (14) anxiety; (15) asthenia; (16) headaches; (17) dizziness; (18) tearfulness; (19) spontaneous activity; (20) elementary self-service; and (21 control of sphincters.
# According to the Hazegawa's scale, the 0 score indicates the poorest result; on the contrary, according to the inventors' scale, the 0 score indicates the absence of a symptom 4 score indicates the greatest manifestation thereof. […] Before the therapy was started, the patients had been independently examined by two doctors who used the inventors' scale. The examination during the treatment was carried out by the doctors using both the scales. The evaluation according to all the inventors' scale points during all the tests and their variations during the treatment with dimebon are given in the Appendix.
# According to the inventors' scale, the degree of the disturbance if the cognitive functions was determined by a sum of evaluations according to the first 5 scale points reflecting the condition of memory, orientation and relation with the reality. The disturbance of speech was dealt with separately and was determined by a sum of evaluations according to items 6b-6d.
# Both absolute evaluations of the signs under investigation (the evaluation prior to treatment is a mean evaluation of the two examinations) and variations in them were analysed in the course of therapy. In doing so, only those changes that were beyond the range of evaluations obtained in two pre-treatment examinations were taken into consideration.
# The test results reflected the condition of the patients at the time of the examination. Any changes in the metal state observed in the interval between the tests and disappearing by the moment of examination according to the scale were described in the section “Clinical Observations”.
# The statistical data processing was carried out by means of Student's t-test and Fisher's “Fi” criterion.
# [1] = change at 8 weeks vs K1, K2, per patient, listed as dimebon
# [2] = marked (by more than 1 score), 8 weeks
# [3] = mean of 14 patients, after 4 weeks
# [4] = mean of 14 patients, after 8 weeks
# [5] = of 11 patients with depressive symptoms prior to treatment, 4 weeks
smiles,measurement,setting,value
"Cc1ccc2c(c1)c1c(n2CCc2ccc(C)nc2)CCN(C)C1 [No. 10, 2,8-dimethyl-5-[2-(6-methyl-3-pyridyl)ethyl]-2,3,4,5-tetrahydro-1H-pyrido[4,3-b]indole]","2. Orientation in space, Changes (8 weeks)",[1],+1 and +0.5
same,"4. Memory for the present, Changes (8 weeks)",[1],−0.5 (2×) and +1 and +0.5 (4×)
same,"5. Life in the past, Changes (8 weeks)",[1],+0.5 (4×) and +1 (2×)
same,"6b. Difficulty in finding words, Changes (8 weeks)",[1],0 and −0.5
same,"6c. Naming of objects, Changes (8 weeks)",[1],+0.5 (3×) and +1
same,"7. Concentration, Changes (8 weeks)",[1],−0.5 (2×) and +0.5
same,"8b. Lower spirits, Changes (8 weeks)",[1],+1.5 and +1 (3×) and +2 and −1 and +0.5 and −5
same,"9. Delirium, Changes (8 weeks)",[1],+1.5 and 0 (2×) and +2
same,"13. Irritability, Changes (8 weeks)",[1],+1.5 and +1 (2×) and −1.5 and 0
same,"14. Anxiety, Changes (8 weeks)",[1],+0.5 and +1 and −0.5
same,"16. Headache, Changes (8 weeks)",[1],+0.5 and +2 and +1.5 and −1
same,"17. Dizziness, Changes (8 weeks)",[1],1 and −2 (2×) and +1 (2×) and −0.5
same,"18. Tearfulness, Changes (8 weeks)",[1],+1 and +2
same,"19. Spontaneous activity, Changes (8 weeks)",[1],+1 and 0 (3×) and −1
same,"20. Elementary self-service, Changes (8 weeks)",[1],+1 and −1
same,"6d. Performing instructions, Changes (8 weeks)",[1],−1.5 and −1 (2×) and +0.5 and +1 (2×) and 0
same,aggravation or emergence of irritability,during treatment,Not a single observation
same,first emergence of delirium,during treatment,not a single case
same,"Speech functions (items 6b, c, d): deteriorations, %",[2],2.4%
same,"Speech functions (items 6b, c, d): deteriorations, abs.",[2],1
same,"Degree of irritability, M +/− m",after 4 weeks,0.43 +/− 0.28 scores
same,"Degree of irritability, M +/− m",after 8 weeks,0.29 +/− 5.17 scores
same,"Variations of cognitive function, M +/− m","mean of 7 patients with unprofound (mild) dementia, 4 weeks, listed as Demibon",+0.5 +/− 0.14 score
same,"Variations of cognitive function, M +/− m","mean of 7 patients with unprofound (mild) dementia, 4 weeks, listed as dimebon",0.5±0.14 score
same,"Variations of cognitive function, M +/− m","mean of 7 patients with unprofound (mild) dementia, 8 weeks",+1.79 +/− 0.35 score
same,"Values of cognitive functions, M +/− m",after 4 weeks,5.5 +/− 0.79 score
same,"Values of cognitive functions, M +/− m",after 8 weeks,3.93 +/− 0.5 score
same,"Marked depressive manifestation, M +/− m",after 4 weeks,0.69 +/− 0.23 scores
same,"Marked depressive manifestation, M +/− m",after 8 weeks,0.69 +/− 0.18 scores
same,"Intensity of headache, M +/− m",after 4 weeks,0.45 +/− 0.29 scores
same,"Intensity of headache, M +/− m",after 8 weeks,0.9 +/− 0.31 scores
same,"Variations of cognitive function, M +/− m","mean of 14 patients, 4 weeks",−0.43 +/− 0.15 score
same,"Variations of speech function, M +/− m","mean of 14 patients, 4 weeks",−0.18 +/− 0.14
same,"Variations of cognitive function, M +/− m","mean of 14 patients, 8 weeks",+1.14 +/− 0.26 score
same,"Variations of speech function, M +/− m","mean of 14 patients, 8 weeks",−0.04 +/− 0.22
same,"Evaluation of speech function, M +/− m",[3],1.61 +/− 0.44 scores
same,"Values of cognitive function (sum of first 5 scale points), M +/− m",[3],8.32 +/− 0.93 score
same,"Evaluation of speech function, M +/− m",[4],1.39 +/− 0.47 scores
same,"Values of cognitive function (sum of first 5 scale points), M +/− m",[4],7.21 +/− 0.82 score
same,"Cognitive functions (first 5 scale points): improvements, %","moderate (by 1 score), 4 weeks",5.7%
same,"Cognitive functions (first 5 scale points): improvements, abs.","moderate (by 1 score), 4 weeks",4
same,"Speech functions (items 6b, c, d): deteriorations, %","moderate (by 1 score), 4 weeks",2.4%
same,"Speech functions (items 6b, c, d): deteriorations, abs.","moderate (by 1 score), 4 weeks",1
same,"Speech functions (items 6b, c, d): improvements, %","moderate (by 1 score), 4 weeks",7.14%
same,"Speech functions (items 6b, c, d): improvements, abs.","moderate (by 1 score), 4 weeks",3
same,"Cognitive functions (first 5 scale points): improvements, %","moderate (by 1 score), 8 weeks",8.6%
same,"Cognitive functions (first 5 scale points): improvements, abs.","moderate (by 1 score), 8 weeks",6
same,"Speech functions (items 6b, c, d): deteriorations, %","moderate (by 1 score), 8 weeks",4.8%
same,"Speech functions (items 6b, c, d): deteriorations, abs.","moderate (by 1 score), 8 weeks",2
same,"Speech functions (items 6b, c, d): improvements, %","moderate (by 1 score), 8 weeks",7.1%
same,"Speech functions (items 6b, c, d): improvements, abs.","moderate (by 1 score), 8 weeks",3
same,number of patients showing no signs of tearfulness,"of 5 patients with tearfulness prior to treatment, after four weeks",4 patients
same,number of patients with abatement or complete cessation of headaches,after 4 weeks,Five
same,share of patients with abatement or complete cessation of headaches,after 4 weeks,50%
same,number of patients with abatement or complete cessation of headaches,after 8 weeks,3 patients
same,share of patients with abatement or complete cessation of headaches,after 8 weeks,30%
same,number of patients in whom the depression abated,[5],5 patients
same,share of patients in whom the depression abated,[5],45%
same,number of patients with improvement of depression,"of 11 patients with depressive symptoms prior to treatment, 8 weeks",6 patients
